SMILES strings stand for the structures.

The experiment concerns the target T1, EP300 (Homo sapiens, UniProt Q09472).
T1 sequence (Q09472 1049-1156 limits assumed): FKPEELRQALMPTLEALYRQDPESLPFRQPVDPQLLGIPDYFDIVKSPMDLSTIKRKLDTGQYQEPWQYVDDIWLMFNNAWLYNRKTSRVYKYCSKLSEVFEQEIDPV
In words: NanoBRET assay, EP300 bromodomain. The class given is cell-based. More on the design: NanoLuc-EP300-BD (Promega, 0.0002 μg); host or cells: HEK293. The settings on record: NanoBRET in HEK293 cells, read after 4 hours incubation; mean ± Standard Deviation. As for the experimental part:
HEK293 cells are seeded at 10×10^6 cells/16 mL in DMEM+10% FBS in a T-75 flask and left to attach for 4-6 hours. Transfection reagents are diluted in Opti-MEM media (no phenol red, no FBS) and 8% Fugene HD containing expression plasmids at a final concentration of the following: 1: Histone H3.3 HaloTag DNA (Promega, 0.02 μg)+NanoLuc-CREBBP-BD (Promega, 0.0002 μg); 2: Histone H3.3 HaloTag DNA (Promega, 0.02 μg)+NanoLuc-EP300-BD (Promega, 0.0002 μg); 3: Histone H4 HaloTag DNA (0.02 μg)+NanLuc-BRD4 Full Length (Promega, 0.0002 μg). The DNA/Fugene mixtures are left at RT for 10 minutes. Transfection mix (800 μL) is added per flask and immediately swirled to cover the cells. The plates are returned to the incubator for overnight transfection. The next day, HaloTag NanoBRET 618 ligand (20 μL/vial of 0.1 mM) is thawed at RT. […]
Compound is serially diluted and added to 96-well plates (2 10 mM, 3-fold dilutions, 100% DMSO). […] CREBBP/EP300 plates are read after 4 hours incubation and the BRD4 plates are read after overnight incubation. To develop plates for reading, allow all reagents to reach RT before use. […] The plate is shaken for 1 minute to mix and within 10 minutes, read on Envision plate reader with the following settings: Mirror: Luminescence; Emission filter: E600LP; 2nd emission filter: D460/50; Measurement height (mm): 6.5; Measurement time (s): 0.2 second.

For orientation: IC50 means the concentration that inhibits the measured activity by half. A low value points to inhibition by little substance. Compound `CCNC(=O)c1ccc(-c2cc3cccc(-c4nn(C)c5c4CN(C)C(=O)CC5)c3cn2)cn1` [Example 2, 5-[8-(1,5-Dimethyl-6-oxo-7,8-dihydro-4H-pyrazolo[4,3-c]azepin-3-yl)-3-isoquinolyl]-N-ethyl-pyridine-2-carboxamide] had an IC50 of 0.0261 ± 0.0165 µM.
